Columns and labels:
Set-up in all cases: scale not given: the % may be the effect or the level left
[1] = biological target: RAC-alpha serine/threonine-protein kinase (Homo sapiens) (UniProt P31749); test: Inhibition of human AKT1 assessed as enzyme activity at 1 uM relative to control
[2] = biological target: ALK tyrosine kinase receptor (Homo sapiens) (UniProt Q9UM73); test: Inhibition of human ALK assessed as enzyme activity at 1 uM relative to control
[3] = biological target: AMP-activated protein kinase (AMPK) alpha-1/beta-1/gamma-1 (Homo sapiens) (UniProt P54619+Q9Y478+Q13131); test: Inhibition of human AMPKA1/B1/G1 assessed as enzyme activity at 1 uM relative to control; format: protein-complex assay
[4] = biological target: Serine/threonine-protein kinase BRSK1 (Homo sapiens) (UniProt Q8TDC3); test: Inhibition of human BrSK1 assessed as enzyme activity at 1 uM relative to control
[5] = biological target: CDK2/Cyclin A2 (Homo sapiens) (UniProt P24941+P20248); test: Inhibition of human CDK2/cyclinA assessed as enzyme activity at 1 uM relative to control; format: protein-complex assay
[6] = biological target: Cyclin-dependent kinase 5/CDK5 activator 1 (Homo sapiens) (UniProt Q00535+Q15078); test: Inhibition of human CDK5/p35 assessed as enzyme activity at 1 uM relative to control; format: protein-complex assay
[7] = biological target: CDK6/cyclin D3 (Homo sapiens) (UniProt P30281+Q00534); test: Inhibition of human CDK6/cyclinD3 assessed as enzyme activity at 1 uM relative to control; format: protein-complex assay
[8] = biological target: Casein kinase I isoform delta (Homo sapiens) (UniProt P48730); test: Inhibition of human CK1delta assessed as enzyme activity at 1 uM relative to control
[9] = biological target: Death-associated protein kinase 1 (Homo sapiens) (UniProt P53355); test: Inhibition of human DAPK1 assessed as enzyme activity at 1 uM relative to control
[10] = biological target: Serine/threonine-protein kinase 17A (Homo sapiens) (UniProt Q9UEE5); test: Inhibition of human DRAK1 assessed as enzyme activity at 1 uM relative to control
Serine/threonine-protein kinase 17A (Homo sapiens), sequence (Q9UEE5 whole entry): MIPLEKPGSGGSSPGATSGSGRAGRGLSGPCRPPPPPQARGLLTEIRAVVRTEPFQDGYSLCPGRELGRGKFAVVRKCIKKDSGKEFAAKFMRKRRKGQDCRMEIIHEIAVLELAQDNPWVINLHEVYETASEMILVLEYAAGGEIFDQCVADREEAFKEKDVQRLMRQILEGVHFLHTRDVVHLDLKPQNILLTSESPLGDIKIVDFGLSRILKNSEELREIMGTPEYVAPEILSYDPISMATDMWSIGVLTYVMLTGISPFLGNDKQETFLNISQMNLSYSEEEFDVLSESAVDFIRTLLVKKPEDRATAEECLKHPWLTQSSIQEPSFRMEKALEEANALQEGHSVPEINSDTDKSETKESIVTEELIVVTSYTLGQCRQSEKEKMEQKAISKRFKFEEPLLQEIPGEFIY

[11] = biological target: Mitogen-activated protein kinase 1 (Homo sapiens) (UniProt P28482); test: Inhibition of human ERK2 assessed as enzyme activity at 1 uM relative to control
[12] = biological target: Tyrosine-protein kinase SYK (Homo sapiens) (UniProt P43405); test: Inhibition of human Syk assessed as enzyme activity at 1 uM relative to control
[13] = biological target: Serine/threonine-protein kinase mTOR (Homo sapiens) (UniProt P42345); test: Inhibition of human mTOR assessed as enzyme activity at 1 uM relative to control
[14] = biological target: Mitogen-activated protein kinase 13 (Homo sapiens) (UniProt O15264); test: Inhibition of human p38delta assessed as enzyme activity at 1 uM relative to control
Mitogen-activated protein kinase 13 (Homo sapiens), sequence (O15264 whole entry): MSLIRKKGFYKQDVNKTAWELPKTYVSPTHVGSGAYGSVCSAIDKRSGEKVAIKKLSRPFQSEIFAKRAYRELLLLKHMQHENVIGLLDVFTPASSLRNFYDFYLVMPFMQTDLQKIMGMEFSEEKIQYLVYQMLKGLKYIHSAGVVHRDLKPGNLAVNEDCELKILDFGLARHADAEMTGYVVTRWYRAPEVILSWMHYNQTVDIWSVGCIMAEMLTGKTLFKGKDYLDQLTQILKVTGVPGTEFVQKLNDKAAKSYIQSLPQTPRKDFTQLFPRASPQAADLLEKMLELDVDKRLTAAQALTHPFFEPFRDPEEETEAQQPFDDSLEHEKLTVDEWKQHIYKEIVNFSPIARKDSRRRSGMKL

[15] = biological target: Serine/threonine-protein kinase 24 (Homo sapiens) (UniProt Q9Y6E0); test: Inhibition of human MST3 assessed as enzyme activity at 1 uM relative to control
[16] = biological target: Hepatocyte growth factor receptor (Homo sapiens) (UniProt P08581); test: Inhibition of human Met assessed as enzyme activity at 1 uM relative to control
[17] = biological target: Serine/threonine-protein kinase NLK (Homo sapiens) (UniProt Q9UBE8); test: Inhibition of human NLK assessed as enzyme activity at 1 uM relative to control
Serine/threonine-protein kinase NLK (Homo sapiens), sequence (Q9UBE8 whole entry): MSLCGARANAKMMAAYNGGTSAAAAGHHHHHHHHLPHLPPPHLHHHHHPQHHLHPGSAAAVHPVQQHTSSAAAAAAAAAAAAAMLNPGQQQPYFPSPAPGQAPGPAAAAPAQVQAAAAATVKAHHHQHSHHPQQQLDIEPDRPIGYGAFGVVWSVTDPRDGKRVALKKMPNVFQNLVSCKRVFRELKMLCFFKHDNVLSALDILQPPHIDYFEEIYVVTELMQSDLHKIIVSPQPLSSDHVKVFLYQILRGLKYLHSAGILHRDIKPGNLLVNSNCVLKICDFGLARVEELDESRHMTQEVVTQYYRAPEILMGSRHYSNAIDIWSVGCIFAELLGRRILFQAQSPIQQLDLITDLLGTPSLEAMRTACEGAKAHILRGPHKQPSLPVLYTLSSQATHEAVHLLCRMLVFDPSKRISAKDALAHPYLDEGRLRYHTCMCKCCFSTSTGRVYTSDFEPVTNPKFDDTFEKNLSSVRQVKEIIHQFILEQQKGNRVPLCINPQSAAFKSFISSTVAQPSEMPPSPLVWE

[18] = biological target: cAMP-dependent protein kinase catalytic subunit alpha (Homo sapiens) (UniProt P17612); test: Inhibition of human PKAC-alpha assessed as enzyme activity at 1 uM relative to control
[19] = biological target: Protein kinase C beta type (Homo sapiens) (UniProt P05771); test: Inhibition of human PKCbeta1 assessed as enzyme activity at 1 uM relative to control
[20] = biological target: Protein kinase C eta type (Homo sapiens) (UniProt P24723); test: Inhibition of human PKCeta assessed as enzyme activity at 1 uM relative to control
[21] = biological target: Protein kinase C gamma type (Homo sapiens) (UniProt P05129); test: Inhibition of human PKCgamma assessed as enzyme activity at 1 uM relative to control
[22] = biological target: Serine/threonine-protein kinase D2 (Homo sapiens) (UniProt Q9BZL6); test: Inhibition of human PKD2 assessed as enzyme activity at 1 uM relative to control
[23] = biological target: Serine/threonine-protein kinase pim-1 (Homo sapiens) (UniProt P11309); test: Inhibition of human Pim-1 assessed as enzyme activity at 1 uM relative to control
[24] = biological target: Receptor-interacting serine/threonine-protein kinase 2 (Homo sapiens) (UniProt O43353); test: Inhibition of human RIPK2 assessed as enzyme activity at 1 uM relative to control
[25] = biological target: Proto-oncogene tyrosine-protein kinase receptor Ret (Homo sapiens) (UniProt P07949); test: Inhibition of human Ret assessed as enzyme activity at 1 uM relative to control
[26] = biological target: Ribosomal protein S6 kinase alpha-3 (Homo sapiens) (UniProt P51812); test: Inhibition of human Rsk2 assessed as enzyme activity at 1 uM relative to control
[27] = biological target: Serine/threonine-protein kinase Sgk3 (Homo sapiens) (UniProt Q96BR1); test: Inhibition of human SGK3 assessed as enzyme activity at 1 uM relative to control
Serine/threonine-protein kinase Sgk3 (Homo sapiens), sequence (Q96BR1 whole entry): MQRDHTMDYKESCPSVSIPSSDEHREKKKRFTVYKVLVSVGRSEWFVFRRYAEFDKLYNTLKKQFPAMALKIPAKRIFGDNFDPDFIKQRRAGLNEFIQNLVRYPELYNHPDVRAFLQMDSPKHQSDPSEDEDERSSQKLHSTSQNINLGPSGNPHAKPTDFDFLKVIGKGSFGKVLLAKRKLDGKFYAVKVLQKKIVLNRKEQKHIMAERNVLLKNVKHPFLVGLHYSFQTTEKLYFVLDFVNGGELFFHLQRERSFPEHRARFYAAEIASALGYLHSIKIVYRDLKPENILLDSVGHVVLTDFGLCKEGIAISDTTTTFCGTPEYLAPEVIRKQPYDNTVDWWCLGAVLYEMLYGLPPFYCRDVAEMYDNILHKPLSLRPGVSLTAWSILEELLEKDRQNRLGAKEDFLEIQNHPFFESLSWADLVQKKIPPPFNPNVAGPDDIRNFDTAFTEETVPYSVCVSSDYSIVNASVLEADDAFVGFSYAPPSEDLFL

[28] = biological target: Ephrin type-A receptor 8 (Homo sapiens) (UniProt P29322); test: Inhibition of human EphA8 assessed as enzyme activity at 1 uM relative to control
[29] = biological target: Receptor tyrosine-protein kinase erbB-4 (Homo sapiens) (UniProt Q15303); test: Inhibition of human ErbB4 assessed as enzyme activity at 1 uM relative to control
[30] = biological target: Fibroblast growth factor receptor 2 (Homo sapiens) (UniProt P21802); test: Inhibition of human FGFR2 assessed as enzyme activity at 1 uM relative to control
[31] = biological target: Vascular endothelial growth factor receptor 1 (Homo sapiens) (UniProt P17948); test: Inhibition of human Flt1 assessed as enzyme activity at 1 uM relative to control
Vascular endothelial growth factor receptor 1 (Homo sapiens), sequence (P17948 whole entry): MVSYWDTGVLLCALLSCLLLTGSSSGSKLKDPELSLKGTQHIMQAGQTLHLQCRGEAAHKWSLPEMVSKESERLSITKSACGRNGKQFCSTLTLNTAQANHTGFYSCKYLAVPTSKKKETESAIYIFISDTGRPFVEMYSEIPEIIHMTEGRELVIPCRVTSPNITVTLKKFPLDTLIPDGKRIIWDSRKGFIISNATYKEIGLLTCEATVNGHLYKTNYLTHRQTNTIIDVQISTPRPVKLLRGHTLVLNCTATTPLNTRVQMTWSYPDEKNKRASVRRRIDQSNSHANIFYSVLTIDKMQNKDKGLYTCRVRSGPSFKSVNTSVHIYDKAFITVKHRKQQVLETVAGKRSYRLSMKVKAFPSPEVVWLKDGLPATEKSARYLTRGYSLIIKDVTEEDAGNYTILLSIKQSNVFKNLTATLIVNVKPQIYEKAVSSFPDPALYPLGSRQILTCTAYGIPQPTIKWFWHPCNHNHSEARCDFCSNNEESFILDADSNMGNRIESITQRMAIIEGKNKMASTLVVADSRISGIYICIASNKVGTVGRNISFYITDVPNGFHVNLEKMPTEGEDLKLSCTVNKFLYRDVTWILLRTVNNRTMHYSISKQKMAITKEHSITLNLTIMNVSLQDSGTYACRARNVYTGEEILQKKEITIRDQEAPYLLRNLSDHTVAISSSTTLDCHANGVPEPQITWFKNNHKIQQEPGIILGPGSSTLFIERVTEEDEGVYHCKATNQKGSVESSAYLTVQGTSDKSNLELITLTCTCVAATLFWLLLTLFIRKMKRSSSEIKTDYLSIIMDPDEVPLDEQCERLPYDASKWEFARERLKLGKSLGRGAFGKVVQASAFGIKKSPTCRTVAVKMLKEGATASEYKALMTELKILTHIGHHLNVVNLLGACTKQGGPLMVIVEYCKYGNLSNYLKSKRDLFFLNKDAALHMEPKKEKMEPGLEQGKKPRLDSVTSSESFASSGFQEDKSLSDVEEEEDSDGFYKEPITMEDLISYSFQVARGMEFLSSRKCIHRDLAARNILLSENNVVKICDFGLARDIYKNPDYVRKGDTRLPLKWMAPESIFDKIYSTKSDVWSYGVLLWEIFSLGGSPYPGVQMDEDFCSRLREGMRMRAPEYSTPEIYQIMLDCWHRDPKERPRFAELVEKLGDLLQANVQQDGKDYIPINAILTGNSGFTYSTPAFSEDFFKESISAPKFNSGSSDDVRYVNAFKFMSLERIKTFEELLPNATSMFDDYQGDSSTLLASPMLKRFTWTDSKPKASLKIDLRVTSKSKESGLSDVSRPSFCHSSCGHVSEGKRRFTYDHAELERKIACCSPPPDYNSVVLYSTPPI

[32] = biological target: Vascular endothelial growth factor receptor 3 (Homo sapiens) (UniProt P35916); test: Inhibition of human Flt4 assessed as enzyme activity at 1 uM relative to control
[33] = biological target: Homeodomain-interacting protein kinase 1 (Homo sapiens) (UniProt Q86Z02); test: Inhibition of human HIPK1 assessed as enzyme activity at 1 uM relative to control
Homeodomain-interacting protein kinase 1 (Homo sapiens), sequence (Q86Z02 whole entry, looked up): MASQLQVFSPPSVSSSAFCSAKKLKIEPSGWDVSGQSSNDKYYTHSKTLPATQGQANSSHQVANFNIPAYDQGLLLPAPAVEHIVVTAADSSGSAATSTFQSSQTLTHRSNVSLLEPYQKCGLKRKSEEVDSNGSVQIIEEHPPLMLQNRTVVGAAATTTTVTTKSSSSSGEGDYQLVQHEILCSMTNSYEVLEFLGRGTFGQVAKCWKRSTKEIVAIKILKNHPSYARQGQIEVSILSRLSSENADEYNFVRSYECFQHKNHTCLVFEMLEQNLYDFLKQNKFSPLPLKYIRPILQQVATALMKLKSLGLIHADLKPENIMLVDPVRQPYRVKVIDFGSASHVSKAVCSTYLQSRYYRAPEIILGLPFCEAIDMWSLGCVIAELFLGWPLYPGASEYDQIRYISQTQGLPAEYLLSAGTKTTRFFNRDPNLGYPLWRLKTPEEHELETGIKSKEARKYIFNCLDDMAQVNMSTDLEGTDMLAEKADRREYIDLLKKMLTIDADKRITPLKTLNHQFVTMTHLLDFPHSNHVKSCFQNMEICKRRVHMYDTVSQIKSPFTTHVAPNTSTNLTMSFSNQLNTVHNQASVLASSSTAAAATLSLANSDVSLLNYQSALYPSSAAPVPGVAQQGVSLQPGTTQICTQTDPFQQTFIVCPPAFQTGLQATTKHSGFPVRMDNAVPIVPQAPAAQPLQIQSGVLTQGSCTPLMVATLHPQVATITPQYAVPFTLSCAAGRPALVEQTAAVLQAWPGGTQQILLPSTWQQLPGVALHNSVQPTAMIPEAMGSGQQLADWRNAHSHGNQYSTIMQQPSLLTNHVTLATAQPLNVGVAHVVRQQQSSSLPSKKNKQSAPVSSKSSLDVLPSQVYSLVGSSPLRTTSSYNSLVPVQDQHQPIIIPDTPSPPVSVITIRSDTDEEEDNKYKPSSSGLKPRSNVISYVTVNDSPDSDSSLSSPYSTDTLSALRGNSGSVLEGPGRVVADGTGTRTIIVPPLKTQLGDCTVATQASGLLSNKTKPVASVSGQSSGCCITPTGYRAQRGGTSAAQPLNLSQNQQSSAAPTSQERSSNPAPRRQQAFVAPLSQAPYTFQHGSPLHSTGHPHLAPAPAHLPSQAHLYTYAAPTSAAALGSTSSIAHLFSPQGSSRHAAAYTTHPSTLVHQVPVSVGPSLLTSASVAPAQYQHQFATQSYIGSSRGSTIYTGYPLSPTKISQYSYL

[34] = biological target: Insulin receptor-related protein (Homo sapiens) (UniProt P14616); test: Inhibition of human IRR assessed as enzyme activity at 1 uM relative to control
[35] = biological target: Tyrosine-protein kinase ITK/TSK (Homo sapiens) (UniProt Q08881); test: Inhibition of human ITK assessed as enzyme activity at 1 uM relative to control
[36] = biological target: Tyrosine-protein kinase JAK3 (Homo sapiens) (UniProt P52333); test: Inhibition of human JAK3 assessed as enzyme activity at 1 uM relative to control
[37] = biological target: LIM domain kinase 1 (Homo sapiens) (UniProt P53667); test: Inhibition of human LIMK1 assessed as enzyme activity at 1 uM relative to control
[38] = biological target: Dual specificity mitogen-activated protein kinase kinase 1 (Homo sapiens) (UniProt Q02750); test: Inhibition of human MEK1 assessed as enzyme activity at 1 uM relative to control

RAC-alpha serine/threonine-protein kinase (Homo sapiens), sequence (P31749 whole entry): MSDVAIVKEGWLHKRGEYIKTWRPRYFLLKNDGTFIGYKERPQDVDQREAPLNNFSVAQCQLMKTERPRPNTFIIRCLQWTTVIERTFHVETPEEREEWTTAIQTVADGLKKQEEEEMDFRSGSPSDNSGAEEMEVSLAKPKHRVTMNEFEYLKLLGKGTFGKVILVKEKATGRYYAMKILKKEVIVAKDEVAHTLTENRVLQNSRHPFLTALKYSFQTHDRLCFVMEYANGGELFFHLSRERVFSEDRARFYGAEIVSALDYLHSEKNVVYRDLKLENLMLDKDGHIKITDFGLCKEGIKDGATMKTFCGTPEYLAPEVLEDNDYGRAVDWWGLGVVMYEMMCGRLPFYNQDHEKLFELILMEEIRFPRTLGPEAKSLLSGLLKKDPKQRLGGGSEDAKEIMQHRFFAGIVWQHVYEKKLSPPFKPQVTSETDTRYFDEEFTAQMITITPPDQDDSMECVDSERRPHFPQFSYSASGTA

Activity [1]: 108%
Activity [2]: 104%
Activity [3]: 95%
Activity [4]: 102%
Activity [5]: 98.5%
Activity [6]: 114%
Activity [7]: 104%
Activity [8]: 95.5%
Activity [10]: 120%
Activity [11]: 97%
Activity [12]: 117%
Activity [13]: 101%
Activity [14]: 96%
Activity [15]: 100%
Activity [16]: 104%
Activity [17]: 102%
Activity [18]: 110%
Activity [19]: 87%
Activity [20]: 101%
Activity [21]: 101%
Activity [22]: 95.5%
Activity [23]: 147%
Activity [24]: 98%
Activity [25]: 98.5%
Activity [26]: 121%
Activity [27]: 108%
Activity [28]: 96%
Activity [29]: 106%
Activity [30]: 99.5%
Activity [31]: 93.5%
Activity [32]: 79.5%
Activity [33]: 114%
Activity [34]: 101%
Activity [35]: 102%
Activity [36]: 99%
Activity [37]: 85%
Activity [38]: 97%
Structure (SMILES): CCCS(=O)(=O)Nc1cccc(Nc2ccc3ncn(C)c(=O)c3c2)c1C#N
Activity [9]: 102%
